{
  "source": "patent US20140274684A1",
  "about": "“Compounds, Compositions, and Methods for Altering Behavior of Insects Or Other Organisms” (BAYER CROPSCIENCE LP, priority 2013, published 2014)",
  "test_system": "honeybees",
  "assay": "honeybee repulsion experiment at feeding stations with 50% sucrose",
  "type": "in vivo",
  "conditions": "2% by weight in 50% sucrose",
  "description": "FIG. 1 describes the feeding station arrangement (A and B) for the honeybee repulsion experiments described herein. As set forth in FIG. 1, panel (A) sets forth the bee cage positions on the left portion of panel (A) with the randomized feeding station positions on the right portion of panel (A). Panel (B) sets forth an alignment of the randomized feeding station positions with a distance of two meters between feeding stations. A total of eight feeding stations were evaluated at a ten meter distance in front of the respective bee hives. The feeding stations were placed two meters apart from one another.\nHoneybees were trained to deep feeders (eight positions), each containing a 50% sucrose solution for one day. After the honeybees were trained to each feeder, the 50% sucrose feeder at randomized positions 1-8 was replaced with a shallow feeder containing a combination of repelling compounds and a 50% sucrose solution according to Table 5. In accordance with FIGS. 5 and 6, 2% by weight of Camphor oil (T4), Ajowan oil (T5), Camphor powder (T6), Rosemary oil (T7), and 2-Decanone (T8) in combination with a 50% sucrose treatment were added to feeders on day two.\nTable 5 describes active agents evaluated for bee repulsion and their randomized feeding station positions. As described in Table 5, T1 (control), T2 (control), T3 (control), T4 (Camphor oil), T5 (Ajowan oil), T6 (Camphor powder), T7 (Rosemary oil), and T8 (2-Decanone).\nFIG. 5 evaluates the number of bees visiting a respective feed station over a time interval. FIG. 6 sets forth the mean number of honeybees visiting feeding station over a period of four hours.",
  "data": [
    {"smiles": "CCCCCCCCC(C)=O", "note": "[2-Decanone, 2-decanone]", "values": [
      {"measurement": "repellency to honeybees visiting feeding station", "setting": "at/after 24 hours", "result": "exhibited repellency"},
      {"measurement": "repellency to honeybees visiting feeding station", "setting": "at/after 24 hours, listed as 2-decanone", "result": "still repellent"},
      {"measurement": "repellency to honeybees visiting feeding station", "setting": "full 4 hour assessment period", "result": "highly repellent"}
    ]}
  ]
}
